Experimental data: ChEMBL document CHEMBL3508693 (2016)
Blank lines part the entries; values can stand above or below the molecule they belong to.

Legend:
[1] = % aliskiren recovered as M5 from M1 in hydrolysed following single intravenous administration of 10 mg.Kg-1 [14C] aliskiren hemifumarate in male rat; format: ADME, organism-based, HAN:WIST(SPF), Bile; details: in vivo
[2] = % of radioactivity recovered as M5 from M1 in faeces following oral administration of [14C] aliskiren hemifumarate at 100 mg.Kg-1 level in rat; format: ADME, organism-based, Albino HAN:WIST, Feces; details: in vivo
[3] = % aliskiren recovered as M5 from M1 in urine following single intravenous administration of 10 mg.Kg-1 [14C] aliskiren hemifumarate in male rat; format: ADME, organism-based, HAN:WIST(SPF); details: in vivo
[4] = % of radioactivity recovered as M5 from M1 in plasma following oral administration of [14C] aliskiren hemifumarate at 100 mg.Kg-1 level in rat; format: ADME, organism-based, Albino HAN:WIST; details: in vivo
[5] = % aliskiren recovered as M5 from M1 in bile following single intravenous administration of 10 mg.Kg-1 [14C] aliskiren hemifumarate in male rat; format: ADME, organism-based, HAN:WIST(SPF); details: in vivo
[6] = % of radioactivity recovered as M5 from M1 in urine following intravenous administration of [14C] aliskiren hemifumarate at 10 mg.Kg-1 level in rat; format: ADME, organism-based, Albino HAN:WIST; details: in vivo
[7] = % of radioactivity recovered as M5 from M1 in plasma following intravenous administration of [14C] aliskiren hemifumarate at 10 mg.Kg-1 level in rat; format: ADME, organism-based, Albino HAN:WIST; details: in vivo
[8] = % of radioactivity recovered as M5 from M1 in faeces following intravenous administration of [14C] aliskiren hemifumarate at 10 mg.Kg-1 level in rat; format: ADME, organism-based, Albino HAN:WIST, Feces; details: in vivo
[9] = % of radioactivity recovered as M5 from M1 in urine following oral administration of [14C] aliskiren hemifumarate at 100 mg.Kg-1 level in rat; format: ADME, organism-based, Albino HAN:WIST; details: in vivo
[10] = % aliskiren recovered as M5 from M1 of receiver rat following duodenal infusion of radioactivity through bile from donor rat treated with single intravenous administration of 10 mg.Kg-1 [14C] aliskiren hemifumarate; format: ADME, organism-based, HAN:WIST(SPF); details: in vivo
[11] = % aliskiren recovered as metabolite M9 in urine following 10 day repeated oral administration of [14C] aliskiren hemifumarate at 100 mg.Kg-1 level studied in rat; format: ADME, organism-based, Albino HAN:WIST; details: in vivo, 240 h
[12] = % of radioactivity recovered as M9 from M2 in urine following oral administration of [14C] aliskiren hemifumarate at 100 mg.Kg-1 level in rat; format: ADME, organism-based, Albino HAN:WIST; details: in vivo
[13] = % of radioactivity recovered as M9 from M2 in urine following intravenous administration of [14C] aliskiren hemifumarate at 10 mg.Kg-1 level in rat; format: ADME, organism-based, Albino HAN:WIST; details: in vivo
[14] = % of radioactivity recovered as M9 from M2 in plasma following intravenous administration of [14C] aliskiren hemifumarate at 10 mg.Kg-1 level in rat; format: ADME, organism-based, Albino HAN:WIST; details: in vivo
[15] = % aliskiren recovered as metabolite M9 in faeces following 10 day repeated oral administration of [14C] aliskiren hemifumarate at 100 mg.Kg-1 level studied in rat; format: ADME, organism-based, Albino HAN:WIST, Feces; details: in vivo, 240 h
[16] = % aliskiren hemifumarate recovered as M9 in faeces following single oral dose of 300 mg [14C]SPP100 studied in healthy men; format: ADME, organism-based, Feces; details: human, in vivo
[17] = % aliskiren recovered as metabolite M9 in plasma following 10 day repeated oral administration of [14C] aliskiren hemifumarate at 100 mg.Kg-1 level studied in rat; format: ADME, organism-based, Albino HAN:WIST; details: in vivo, 240 h
[18] = % of radioactivity recovered as M9 from M2 in plasma following oral administration of [14C] aliskiren hemifumarate at 100 mg.Kg-1 level in rat; format: ADME, organism-based, Albino HAN:WIST; details: in vivo
[19] = % aliskiren hemifumarate recovered as M9 in urine following single oral dose of 300 mg [14C]SPP100 studied in healthy men; format: ADME, organism-based; details: human, in vivo
[20] = % of radioactivity recovered as M9 from M2 in faeces following oral administration of [14C] aliskiren hemifumarate at 100 mg.Kg-1 level in rat; format: ADME, organism-based, Albino HAN:WIST, Feces; details: in vivo
[21] = % of radioactivity recovered as M9 from M2 in faeces following intravenous administration of [14C] aliskiren hemifumarate at 10 mg.Kg-1 level in rat; format: ADME, organism-based, Albino HAN:WIST, Feces; details: in vivo
[22] = % aliskiren hemifumarate recovered as M9 in urine and faeces following single oral dose of 300 mg [14C]SPP100 studied in healthy men; format: ADME, organism-based, Urine/Feces; details: human, in vivo
[23] = % of radioactivity recovered as M6 from M4 in faeces following oral administration of [14C] aliskiren hemifumarate at 100 mg.Kg-1 level in rat; format: ADME, organism-based, Albino HAN:WIST, Feces; details: in vivo
[24] = % aliskiren hemifumarate recovered as M6 from M4 in urine following single oral dose of 300 mg [14C]SPP100 studied in healthy men; format: ADME, organism-based; details: human, in vivo, at 300 mg
[25] = % aliskiren recovered as metabolite M6 in plasma following 10 day repeated oral administration of [14C] aliskiren hemifumarate at 100 mg.Kg-1 level studied in rat; format: ADME, organism-based, Albino HAN:WIST; details: in vivo, 240 h
[26] = % aliskiren recovered as M6 from M4 of receiver rat following duodenal infusion of radioactivity through bile from donor rat treated with single intravenous administration of 10 mg.Kg-1 [14C] aliskiren hemifumarate; format: ADME, organism-based, HAN:WIST(SPF); details: in vivo
[27] = % of radioactivity recovered as M6 from M4 in faeces following intravenous administration of [14C] aliskiren hemifumarate at 10 mg.Kg-1 level in rat; format: ADME, organism-based, Albino HAN:WIST, Feces; details: in vivo
[28] = % of radioactivity recovered as M6 from M4 in plasma following oral administration of [14C] aliskiren hemifumarate at 100 mg.Kg-1 level in rat; format: ADME, organism-based, Albino HAN:WIST; details: in vivo
[29] = % aliskiren hemifumarate recovered as M6 from M4 in urine and faeces following single oral dose of 300 mg [14C]SPP100 studied in healthy men; format: ADME, organism-based, Urine/Feces; details: human, in vivo, at 300 mg
[30] = % aliskiren recovered as M6 from M4 in hydrolysed following single intravenous administration of 10 mg.Kg-1 [14C] aliskiren hemifumarate in male rat; format: ADME, organism-based, HAN:WIST(SPF), Bile; details: in vivo
[31] = % aliskiren hemifumarate recovered as M6 from M4 in faeces following single oral dose of 300 mg [14C]SPP100 studied in healthy men; format: ADME, organism-based, Feces; details: human, in vivo
[32] = % aliskiren recovered as M6 from M4 in urine following single intravenous administration of 10 mg.Kg-1 [14C] aliskiren hemifumarate in male rat; format: ADME, organism-based, HAN:WIST(SPF); details: in vivo
[33] = % of radioactivity recovered as M6 from M4 in urine following intravenous administration of [14C] aliskiren hemifumarate at 10 mg.Kg-1 level in rat; format: ADME, organism-based, Albino HAN:WIST; details: in vivo
[34] = % of radioactivity recovered as M6 from M4 in plasma following intravenous administration of [14C] aliskiren hemifumarate at 10 mg.Kg-1 level in rat; format: ADME, organism-based, Albino HAN:WIST; details: in vivo
[35] = % aliskiren recovered as metabolite M6 in faeces following 10 day repeated oral administration of [14C] aliskiren hemifumarate at 100 mg.Kg-1 level studied in rat; format: ADME, organism-based, Albino HAN:WIST, Feces; details: in vivo, 240 h
[36] = % aliskiren recovered as M6 from M4 in bile following single intravenous administration of 10 mg.Kg-1 [14C] aliskiren hemifumarate in male rat; format: ADME, organism-based, HAN:WIST(SPF); details: in vivo
[37] = % aliskiren recovered as metabolite M6 in urine following 10 day repeated oral administration of [14C] aliskiren hemifumarate at 100 mg.Kg-1 level studied in rat; format: ADME, organism-based, Albino HAN:WIST; details: in vivo, 240 h
[38] = % of radioactivity recovered as M6 from M4 in urine following oral administration of [14C] aliskiren hemifumarate at 100 mg.Kg-1 level in rat; format: ADME, organism-based, Albino HAN:WIST; details: in vivo

- Compound recovery [1]: OUTCOME = Not detected
- Compound recovery [3]: 3.2%
- Compound recovery [4]: > 2%
- Compound recovery [5]: 5%
- Compound recovery [7]: <= 2%
- Compound recovery [9]: <= 2%
- Compound recovery [10]: 8.9%
Compound: COCCCOc1cc(C[C@@H](C[C@H](N)[C@@H](O)C[C@H](C(=O)NCC(C)(C)C(N)=O)C(C)C)C(C)C)ccc1O[C@@H]1O[C@H](CO)[C@@H](O)[C@H](O)[C@H]1O
- Compound recovery [2]: OUTCOME = Not detected or not investigated
- Compound recovery [6]: OUTCOME = Not detected or not investigated
- Compound recovery [8]: OUTCOME = Not detected or not investigated

- Compound recovery [16]: OUTCOME = Not detected
- Compound recovery [19]: OUTCOME = Not detected
- Compound recovery [22]: OUTCOME = Not detected
Compound: COCCCOc1cc(C[C@@H](C[C@H](N)[C@@H]2C[C@H](C(C)C)C(=O)O2)C(C)C)ccc1OC
- Compound recovery [11]: OUTCOME = Observed, VALUE = Minor amounts
- Compound recovery [12]: OUTCOME = Non-radiolabeled metabolite was observed by LC-MS
- Compound recovery [13]: OUTCOME = Not detected or not investigated
- Compound recovery [14]: OUTCOME = Not detected or not investigated
- Compound recovery [15]: OUTCOME = Observed, VALUE = Minor amounts
- Compound recovery [17]: OUTCOME = Observed, VALUE = Minor amounts
- Compound recovery [18]: OUTCOME = Not detected or not investigated
- Compound recovery [20]: OUTCOME = Not detected or not investigated
- Compound recovery [21]: OUTCOME = Not detected or not investigated

- Compound recovery [24]: < 0.1%
- Compound recovery [26]: 8.9%
- Compound recovery [28]: > 2%
- Compound recovery [29]: < 0.1%
- Compound recovery [30]: OUTCOME = Not detected
- Compound recovery [31]: OUTCOME = Not detected
- Compound recovery [32]: 3.2%
- Compound recovery [34]: <= 2%
- Compound recovery [36]: 5%
- Compound recovery [38]: <= 2%
Compound: COc1ccc(C[C@@H](C[C@H](N)[C@@H](O)C[C@H](C(=O)NCC(C)(C)C(N)=O)C(C)C)C(C)C)cc1O[C@@H]1O[C@H](CO)[C@@H](O)[C@H](O)[C@H]1O
- Compound recovery [23]: OUTCOME = Not detected or not investigated
- Compound recovery [25]: OUTCOME = Observed, VALUE = Minor amounts
- Compound recovery [27]: OUTCOME = Not detected or not investigated
- Compound recovery [33]: OUTCOME = Not detected or not investigated
- Compound recovery [35]: OUTCOME = Observed, VALUE = Minor amounts
- Compound recovery [37]: OUTCOME = Observed, VALUE = Minor amounts
